Assay results taken from patent publication US7943551B2, “3-cyclopropyl-4-(3-thiobenzoyl) pyrazoles and their use as herbicides” (Bayer Cropscience AG, priority 2007, dated 2011).

Assays:
Type in all cases: in vivo
Abutilon theophrasti = assay: Post-emergence herbicidal action; settings: Abutilon theophrasti, 80 g of a.i./ha, visual scoring 3-4 weeks after treatment, read-out: Herbicidal activity in % against ABUTH
Protocol: Seeds of mono- and dicotyledonous harmful plants are placed in sandy loam in cardboard pots, covered with soil and grown in the greenhouse under good growth conditions. Two to three weeks after sowing, the test plants are treated at the three-leaf stage. […] The visual scoring of the damage to the harmful plants is carried out 3-4 weeks after the treatment. Here, the compounds of Nos. 1-39, 1-40, 1-1382 and 1-2091 show an activity of at least 90% against Echinochloa crus galli. The compounds of Nos. 1-3, 1-44 and 1-2091 shown an activity of at least 90% against Abutilon theophrasti. The compounds of Nos. 1-39, 1-40 and 1-1382 show an activity of at least 90% against Veronica persica. The compounds of Nos. 1-3, 1-38, 1-39, 1-1406 and 1-1407 show an activity of at least 90% against Stellaria media.
(§1) The comparative tests of Tables 1 to 24 below show the superiority of the compounds according to the invention over the compounds known from the prior art.
(§2) • ABUTH Abutilon theophrasti ALOMY Alopecurus myosuroides • AMARE Amaranthus retroflexus AVEFA Avena fatua • CHEAL Chenopodium album ECHCG Echinochloa crus galli • GALAP Galium aparine LOLMU Lolium multiflorum • MATIN Matricaria inodora PHBPU Pharbitis purpureum • POLCO Fallopia convolvulus STEME Stellaria media • VERPE Veronica persica VIOTR Viola tricolor • XANST Xanthium strumarium Crop Plants • GLXMA Glycine max (soybeans) TRZAS Triticum aestivum (wheat) • ZEAMX Zea mays (corn)

Avena fatua = assay: Post-emergence herbicidal action; settings: 80 g of a.i./ha
Protocol: (§3) Seeds of mono- and dicotyledonous harmful plants are placed in sandy loam in cardboard pots, covered with soil and grown in the greenhouse under good growth conditions. Two to three weeks after sowing, the test plants are treated at the three-leaf stage. The compounds according to the invention, which are formulated as wettable powders or as emulsion concentrates, are sprayed at an application rate of 600 to 800 l of water/ha (converted) in a dosage of 80 grams per hectare onto the surface of the green plant parts. The visual scoring of the damage to the harmful plants is carried out 3-4 weeks after the treatment. Here, the compounds of Nos. 1-39, 1-40, 1-1382 and 1-2091 show an activity of at least 90% against Echinochloa crus galli. The compounds of Nos. 1-3, 1-44 and 1-2091 shown an activity of at least 90% against Abutilon theophrasti. The compounds of Nos. 1-39, 1-40 and 1-1382 show an activity of at least 90% against Veronica persica. The compounds of Nos. 1-3, 1-38, 1-39, 1-1406 and 1-1407 show an activity of at least 90% against Stellaria media.
as §1, §2

Lolium multiflorum = assay: Post-emergence herbicidal action; settings: 80 g of a.i./ha
Protocol: as §3, §1, §2

Alopecurus myosuroides = assay: Post-emergence herbicidal action; settings: 80 g of a.i./ha
Protocol: as §3, §1, §2

Echinochloa crus galli = assay: Post-emergence herbicidal action; settings: 80 g of a.i./ha, visual scoring 3-4 weeks after treatment, read-out: Herbicidal activity in % against ECHCG
Protocol: as §3, §1, §2

Galium aparine = assay: Pre-emergence herbicidal action; settings: 320 g of a.i./ha
Excerpt: (§4) Seeds or rhizome pieces of mono- and dicotyledonous harmful plants are placed in sandy loam in pots of a diameter of 9 to 13 cm and covered with soil. The herbicides, formulated as emulsifiable concentrates or dusts, are applied to the surface of the covering soil in the form of aqueous dispersions or suspensions or emulsions at an application rate of 300 to 800 l of water/ha (converted), at a dosage of 320 grams per hectare. For further cultivation of the plants, the pots are then kept in a greenhouse under optimum conditions. The visual scoring of the damage to the harmful plants is carried out 3-4 weeks after the treatment. Here, the compounds of Nos. 1-3, 1-15, 1-44 and 1-1407 show an activity of at least 90% against Echinochloa crus galli. The compounds of Nos. 1-15, 1-45, 1-1407 and 1-1419 show an activity of at least 90% against Abutilon theophrasti. The compounds of Nos. 1-3, 1-45, 1-1406 and 1-1418 show an activity of at least 90% against Amaranthus retroflexus. The compounds of Nos. 1-44, 1-1406, 1-1407 and 1-1419 show an activity of at least 90% against Stellaria media.
as §1, §2

Chenopodium album = assay: Pre-emergence herbicidal action; settings: 320 g of a.i./ha
Excerpt: as §4, §1, §2

Glycine max (soybeans) = assay: Pre-emergence damage of crop plants; settings: 320 g of a.i./ha, crop plant soybeans
Excerpt: as §4, §1, §2

[1] = tested on: Triticum aestivum (wheat); assay: Pre-emergence damage of crop plants; settings: 320 g of a.i./ha, crop plant wheat
Excerpt: as §4, §1, §2

SMILES | pest or weed control at 80 g/ha (Abutilon theophrasti) [%] | Herbicidal activity in % against AVEFA (Avena fatua) [%] | Herbicidal activity in % against LOLMU (Lolium multiflorum) [%] | Herbicidal activity in % against ALOMY (Alopecurus myosuroides) [%] | pest or weed control at 80 g/ha (Echinochloa crus galli) [%] | Herbicidal activity in % GALAP (Galium aparine) [%] | Herbicidal activity in % CHEAL (Chenopodium album) [%] | Damage to GLXMA (Glycine max (soybeans)) | Damage to TRZAS [1]
Cn1nc(C2CC2)c(C(=O)c2ccc(Cl)c(S(=O)(=O)CC3CC3)c2Cl)c1O [drawing 55] | 70 | 50 | 60 | 70 | 90 |  |  |  | 
Cn1nc(C2CC2)c(C(=O)c2ccc(Cl)c(S(C)(=O)=O)c2Cl)c1O [drawing 56, reference compound] | 60 | 20 | 20 | 20 | 30 |  |  |  | 
Cc1c(C(=O)c2c(C3CC3)nn(C)c2O)ccc(S(C)(=O)=O)c1S(=O)(=O)CC1CC1 [drawing 37] |  |  |  |  |  | 100 | 100 | 0 | 0
